Experimental findings from ChEMBL document CHEMBL4043204, “meso-Dihydroguaiaretic acid derivatives with antibacterial and antimycobacterial activity” (Bioorg Med Chem, 2017) are described below.

Converted amounts (≈) assume the structure as drawn. The source made the active and inactive calls. No cut-off for these calls is given here.

Common to all, as to type: functional
Assay [1] relates to Mycobacterium tuberculosis. The assay is described as follows: Antimycobacterial activity against isoniazid/rifampicin/ethambutol-resistant Mycobacterium tuberculosis G122 assessed as inhibition of mycobacterial growth incubated for 2 weeks by MABA method. The settings on record: for MIC: Mycobacterium tuberculosis, G122, 336 h.
Assay [2] deals with Mycobacterium tuberculosis. The assay is described as follows: Antimycobacterial activity against isoniazid/rifampicin/streptomycin-resistant Mycobacterium tuberculosis G133 assessed as inhibition of mycobacterial growth incubated for 2 weeks by MABA method. The settings on record: for MIC: Mycobacterium tuberculosis, G133, 336 h.
For assay [3], the system named is Mycobacterium tuberculosis. The assay is described as follows: Antimycobacterial activity against isoniazid/rifampicin/ethambutol-resistant Mycobacterium tuberculosis G122 assessed as inhibition of mycobacterial growth up to 50 ug/ml incubated for 2 weeks by MABA method.
Assay [4] relates to Mycobacterium tuberculosis. The assay can be described thus: Antimycobacterial activity against isoniazid/rifampicin/streptomycin-resistant Mycobacterium tuberculosis G133 assessed as inhibition of mycobacterial growth up to 50 ug/ml incubated for 2 weeks by MABA method.
The subject of assay [5] is Mycobacterium tuberculosis. The assay is described as follows: Antibacterial activity against multidrug-resistant Mycobacterium tuberculosis.

Regarding `COc1cc(C[C@@H](C)[C@@H](C)Cc2ccc(OC(=O)c3ccccc3[N+](=O)[O-])c(OC)c2)ccc1O` (racemic), in assay [1], the “-logMIC” value is 4.24 and the MIC came to 50 mg/L (≈ 104 µM). In assay [2], the “-logMIC” value amounted to 3.93 and the MIC is more than 50 mg/L.

Take `COc1cc(C[C@@H](C)[C@@H](C)Cc2ccc(OC(=O)c3cnccn3)c(OC)c2)ccc1OC(=O)c1cnccn1`: the “-logMIC” value in assay [1] and in assay [2] was 4.23 in each case. The MIC in assay [1] and in assay [2] was more than 50 mg/L throughout.

For the compound `COc1cc(C[C@@H](C)[C@@H](C)Cc2ccc(OCCN3CCOCC3)c(OC)c2)ccc1O` (racemic), the “growth inhibition (GI)” value in assay [3] and in assay [4] was “inactive” each time.

For `COc1cc(C[C@@H](C)[C@@H](C)Cc2ccc(OC(=O)c3cnccn3)c(OC)c2)ccc1O` (racemic), in assay [1], the “-logMIC” value is given as 4.07 and the MIC was more than 50 mg/L. For the same compound, in assay [2], the “-logMIC” value came out at 4.07 and the MIC is more than 50 mg/L.

As to `COc1cc(C[C@@H](C)[C@@H](C)Cc2ccc(OCCN3CCCC3)c(OC)c2)ccc1OCCN1CCCC1`, the MIC in assay [1] and in assay [2] was 12.5 mg/L (≈ 23.8 µM) throughout.

On to `CCCCCCCC/C=C\CCCCCCCC(=O)Oc1ccc(C[C@@H](C)[C@@H](C)Cc2ccc(OC(=O)CCCCCCC/C=C\CCCCCCCC)c(OC)c2)cc1OC`, for which the “growth inhibition (GI)” value in assay [3] and in assay [4] was “inactive” in each case. Further, the “-logMIC” value in assay [1] and in assay [2] was 4.58 in each case.

For `COc1cc(C[C@@H](C)[C@@H](C)Cc2ccc(OC(=O)c3cccnc3)c(OC)c2)ccc1O` (racemic), in assay [1], the “-logMIC” value was 4.05 and the MIC turned out to be 50 mg/L (≈ 115 µM). In assay [2], the “-logMIC” value was found to be 4.05 and the MIC came out at 50 mg/L (≈ 115 µM).

Turning to `COc1cc(C[C@@H](C)[C@@H](C)Cc2ccc(OCCN(C)C)c(OC)c2)ccc1OCCN(C)C`, in assay [1], the “-logMIC” value is listed as 4.62 and the MIC was 12.5 mg/L (≈ 26.4 µM). For the same compound, in assay [2], the “-logMIC” value stood at 4.62 and the MIC was determined as 12.5 mg/L (≈ 26.4 µM).

For `COc1cc(C[C@@H](C)[C@@H](C)Cc2ccc(OCCN3CCCCC3)c(OC)c2)ccc1OCCN1CCCCC1`, the MIC in assay [1] and in assay [2] was 6.25 mg/L (≈ 11.3 µM) each time.

On to `COc1cc(C[C@@H](C)[C@@H](C)Cc2ccc(OCCN3CCOCC3)c(OC)c2)ccc1OCCN1CCOCC1`, for which the MIC in assay [1] came to 6.25 mg/L (≈ 11.2 µM); in assay [2] it was 25 mg/L (≈ 44.9 µM).

As for `COc1cc(C[C@@H](C)[C@@H](C)Cc2ccc(OC(=O)c3ccccn3)c(OC)c2)ccc1OC(=O)c1ccccn1`, the “growth inhibition (GI)” value in assay [3] and in assay [4] was “inactive” in each case. Besides, the “-logMIC” value in assay [1] and in assay [2] was 3.91 throughout.

For `COc1cc(C[C@@H](C)[C@@H](C)Cc2ccc(OC)c(OC)c2)ccc1O` (racemic), in assay [1], the “-logMIC” value turned out to be 3.94 and the MIC worked out at 50 mg/L (≈ 145 µM). For the same compound, in assay [2], the “-logMIC” value stood at 3.94 and the MIC came out at 50 mg/L (≈ 145 µM).

Take `CCCCCCCC/C=C\CCCCCCCC(=O)Oc1ccc(C[C@H](C)[C@H](C)Cc2ccc(O)c(OC)c2)cc1OC` (racemic): the “growth inhibition (GI)” value in assay [3] and in assay [4] was “inactive” throughout. Besides, the “-logMIC” value in assay [1] and in assay [2] was 3.9 throughout.

As for `C[C@H]1COc2c(N3CCN(C)CC3)c(F)cc3c(=O)c(C(=O)O)cn1c23.C[C@H]1COc2c(N3CCN(C)CC3)c(F)cc3c(=O)c(C(=O)O)cn1c23.O` [LEVOFLOXACIN], the MIC was determined as 6.25 mg/L in assay [1] and 1.56 mg/L in assay [2].

Regarding `COc1cc(C[C@@H](C)[C@@H](C)Cc2ccc(OC(=O)c3cccnc3)c(OC)c2)ccc1OC(=O)c1cccnc1`, the “-logMIC” value in assay [1] and in assay [2] was 4.2 throughout. Moreover, the MIC in assay [1] and in assay [2] was more than 50 mg/L each time.

`CCCCCCCCCCCCCCCCCC(=O)Oc1ccc(C[C@H](C)[C@H](C)Cc2ccc(O)c(OC)c2)cc1OC` (racemic): the “growth inhibition (GI)” value in assay [3] and in assay [4] was “inactive” each time. The “-logMIC” value in assay [1] and in assay [2] was 3.84 throughout.

As for `CCCCCCCCCCCCCCCC(=O)Oc1ccc(C[C@@H](C)[C@@H](C)Cc2ccc(OC(=O)CCCCCCCCCCCCCCC)c(OC)c2)cc1OC`, the “growth inhibition (GI)” value in assay [3] and in assay [4] was “inactive” in each case. Also, the “-logMIC” value in assay [1] and in assay [2] was 4.02 throughout.

In the case of `COc1cc(C[C@@H](C)[C@@H](C)Cc2ccc(OC(C)=O)c(OC)c2)ccc1O` (racemic), in assay [1], the “-logMIC” value amounted to 4.07 and the MIC is more than 50 mg/L. In addition, in assay [2], the “-logMIC” value worked out at 4.07 and the MIC is more than 50 mg/L.

For `CCN(CC)CCOc1ccc(C[C@@H](C)[C@@H](C)Cc2ccc(OCCN(CC)CC)c(OC)c2)cc1OC`, in assay [1], the “-logMIC” value was 4.25 and the MIC was found to be 25 mg/L (≈ 47.3 µM). Besides, in assay [2], the “-logMIC” value turned out to be 4.25 and the minimal inhibitory concentration (MIC) came to 25 mg/L (≈ 47.3 µM).

As to `COc1cc(C[C@@H](C)[C@@H](C)Cc2ccc(OC(=O)c3ccccn3)c(OC)c2)ccc1O` (racemic), the “-logMIC” value in assay [1] and in assay [2] was 3.86 throughout. Also, the MIC in assay [1] is 25 mg/L (≈ 57.4 µM); in assay [2], more than 50 mg/L.

For the compound `COc1cc(C[C@@H](C)[C@@H](C)Cc2ccc(OC(=O)c3ccccc3)c(OC)c2)ccc1OC(=O)c1ccccc1`, the “growth inhibition (GI)” value in assay [3] and in assay [4] was “inactive” each time. Further, the “-logMIC” value in assay [1] and in assay [2] was 4.14 throughout.

With `CC[C@@H](CO)NCCN[C@@H](CC)CO` [ETHAMBUTOL], the MIC turned out to be 6.25 mg/L (≈ 30.6 µM) in assay [1] and 3.12 mg/L (≈ 15.3 µM) in assay [2].

In the case of `CCCC(=O)Oc1ccc(C[C@H](C)[C@H](C)Cc2ccc(O)c(OC)c2)cc1OC` (racemic), the “growth inhibition (GI)” value in assay [3] and in assay [4] was “inactive” in each case. In addition, the “-logMIC” value in assay [1] and in assay [2] was 3.93 in each case.

With `COc1cc(C[C@@H](C)[C@@H](C)Cc2ccc(O)c(OC)c2)ccc1O` [MESODIHYDROGUAIARETIC ACID], the results for the MIC in assay [1], in assay [2] and in assay [5] were more than 50 mg/L, more than 50 mg/L and 12.5 to 50 mg/L (≈ 37.8 to 151 µM), respectively.

Consider `CCCCCCCCCCCCCCCCCC(=O)Oc1ccc(C[C@@H](C)[C@@H](C)Cc2ccc(OC(=O)CCCCCCCCCCCCCCCCC)c(OC)c2)cc1OC`, for which the “growth inhibition (GI)” value in assay [3] and in assay [4] was “inactive” in each case. Further, the “-logMIC” value in assay [1] and in assay [2] was 3.85 throughout.

For the compound `COc1cc(C[C@@H](C)[C@@H](C)Cc2ccc(OCCN3CCCCC3)c(OC)c2)ccc1O` (racemic), the MIC in assay [1] and in assay [2] was 25 mg/L (≈ 56.6 µM) in each case.

As for `CCCCCCCCCCCCCCCC(=O)Oc1ccc(C[C@H](C)[C@H](C)Cc2ccc(O)c(OC)c2)cc1OC` (racemic), the “growth inhibition (GI)” value in assay [3] and in assay [4] was “inactive” each time. In addition, the “-logMIC” value in assay [1] and in assay [2] was 3.93 each time.

`COc1cc(C[C@@H](C)[C@@H](C)Cc2ccc(OC(=O)c3ccccc3)c(OC)c2)ccc1O` (racemic): the “-logMIC” value is recorded as 4.01 in assay [1] and 4 in assay [2]. Further, the MIC in assay [1] and in assay [2] was more than 50 mg/L throughout.

Consider `COc1cc(C[C@@H](C)[C@@H](C)Cc2ccc(OC(=O)c3ccccc3[N+](=O)[O-])c(OC)c2)ccc1OC(=O)c1ccccc1[N+](=O)[O-]`, for which the “growth inhibition (GI)” value in assay [3] and in assay [4] was “inactive” throughout. Further, the “-logMIC” value in assay [1] and in assay [2] was 4.03 in each case.

`COc1ccc(C[C@@H](C)[C@@H](C)Cc2ccc(OC)c(OC)c2)cc1OC` [TERAMEPROCOL]: the “growth inhibition (GI)” value in assay [3] and in assay [4] was “inactive” in each case. For the same compound, the “-logMIC” value in assay [1] is 4.95; in assay [2] it was 4.35.

In the case of `COc1cc(C[C@@H](C)[C@@H](C)Cc2ccc(OC(=O)c3ccc(Br)cc3)c(OC)c2)ccc1O` (racemic), in assay [1], the “-logMIC” value was determined as 3.98 and the MIC is more than 50 mg/L. In assay [2], the “-logMIC” value is reported as 3.97 and the MIC was more than 50 mg/L.

Turning to `CCCC(=O)Oc1ccc(C[C@@H](C)[C@@H](C)Cc2ccc(OC(=O)CCC)c(OC)c2)cc1OC`, the “growth inhibition (GI)” value in assay [3] and in assay [4] was “inactive” in each case. Moreover, the “-logMIC” value in assay [1] and in assay [2] was 4.03 throughout.

`COc1cc(C[C@@H](C)[C@@H](C)Cc2ccc(OCCN3CCCC3)c(OC)c2)ccc1O` (racemic): the “-logMIC” value in assay [1] and in assay [2] was 4.95 throughout. The MIC in assay [1] and in assay [2] was 25 mg/L (≈ 58.5 µM) each time.

Take `COc1cc(C[C@@H](C)[C@@H](C)Cc2ccc(OCCN(C)C)c(OC)c2)ccc1O` (racemic): the “-logMIC” value in assay [1] and in assay [2] was 4.23 throughout. Further, the MIC in assay [1] and in assay [2] was more than 50 mg/L in each case.

With `COc1cc(C[C@@H](C)[C@@H](C)Cc2ccc(OC(C)=O)c(OC)c2)ccc1OC(C)=O`, in assay [1], the “-logMIC” value was 4.23 and the MIC is more than 50 mg/L. Further, in assay [2], the “-logMIC” value is 4.23 and the MIC is more than 50 mg/L.

In the case of `COc1cc(C[C@@H](C)[C@@H](C)Cc2ccc(OC(=O)c3ccc(Br)cc3)c(OC)c2)ccc1OC(=O)c1ccc(Br)cc1`, the “growth inhibition (GI)” value in assay [3] and in assay [4] was “inactive” each time. For the same compound, the “-logMIC” value in assay [1] and in assay [2] was 4.09 throughout.
